The text below walks through data of patent US20240279220A1, “INDOLE COMPOUNDS AND METHODS OF USE” (Genzyme Corporation, priority 2021, published 2024).

One assay deals with T1, CFTR (Homo sapiens, UniProt P13569, DEL508-508).
T1 construct: Primary human bronchial epithelial cells from a ΔF508 homozygous CF donor; host or cells: primary human bronchial epithelial cells (CF-HBE), ΔF508 homozygous donor
As to the kind of experiment: TECC24 recording of CFTR-mediated transepithelial chloride transport in ΔF508 homozygous CF-HBE cells. The assay is classed as cell-based. Conditions: 10 μM test agent, 48 hours incubation, AUC of forskolin-stimulated IEQ divided by vehicle AUC, primary CF-HBE cells. In short, it runs like this: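 ΔF508 homozygous primary bronchial epithelia exposed to compound 48 h at 36.5 °C, then transepithelial voltage and resistance recorded in pH 7.4 buffer with benzamil (10 μM), forskolin (10 μM) stimulation and CFTRinh-172 (20 μM) stop. Equivalent Cl⁻ current AUC vs vehicle gives efficacy; EC50 fitted with Hill slope fixed at 1.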

Another assay has as its system NBD1/3D. As to the kind of experiment: Aggregation analysis using differential static light scattering (DSLS), NBD1 thermal stability. The assay is classed as binding, Human. As to conditions: ΔTagg versus DMSO control; compound at 100 μM. In a few lines:
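Thermal stabilisation reported as ΔTagg, i.e. aggregation temperature relative to averaged DMSO wells. Tagg came from the inflection of differential static light scattering imaged 25–70 °C while NBD1 (0.2 mg/ml, Tris pH 7.6 buffer containing ATP, MgCl2, DTT, glycerol) was ramped 1 °C/min.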

T1 sequence (P13569 with tags, fused parts or gaps DEL508-508): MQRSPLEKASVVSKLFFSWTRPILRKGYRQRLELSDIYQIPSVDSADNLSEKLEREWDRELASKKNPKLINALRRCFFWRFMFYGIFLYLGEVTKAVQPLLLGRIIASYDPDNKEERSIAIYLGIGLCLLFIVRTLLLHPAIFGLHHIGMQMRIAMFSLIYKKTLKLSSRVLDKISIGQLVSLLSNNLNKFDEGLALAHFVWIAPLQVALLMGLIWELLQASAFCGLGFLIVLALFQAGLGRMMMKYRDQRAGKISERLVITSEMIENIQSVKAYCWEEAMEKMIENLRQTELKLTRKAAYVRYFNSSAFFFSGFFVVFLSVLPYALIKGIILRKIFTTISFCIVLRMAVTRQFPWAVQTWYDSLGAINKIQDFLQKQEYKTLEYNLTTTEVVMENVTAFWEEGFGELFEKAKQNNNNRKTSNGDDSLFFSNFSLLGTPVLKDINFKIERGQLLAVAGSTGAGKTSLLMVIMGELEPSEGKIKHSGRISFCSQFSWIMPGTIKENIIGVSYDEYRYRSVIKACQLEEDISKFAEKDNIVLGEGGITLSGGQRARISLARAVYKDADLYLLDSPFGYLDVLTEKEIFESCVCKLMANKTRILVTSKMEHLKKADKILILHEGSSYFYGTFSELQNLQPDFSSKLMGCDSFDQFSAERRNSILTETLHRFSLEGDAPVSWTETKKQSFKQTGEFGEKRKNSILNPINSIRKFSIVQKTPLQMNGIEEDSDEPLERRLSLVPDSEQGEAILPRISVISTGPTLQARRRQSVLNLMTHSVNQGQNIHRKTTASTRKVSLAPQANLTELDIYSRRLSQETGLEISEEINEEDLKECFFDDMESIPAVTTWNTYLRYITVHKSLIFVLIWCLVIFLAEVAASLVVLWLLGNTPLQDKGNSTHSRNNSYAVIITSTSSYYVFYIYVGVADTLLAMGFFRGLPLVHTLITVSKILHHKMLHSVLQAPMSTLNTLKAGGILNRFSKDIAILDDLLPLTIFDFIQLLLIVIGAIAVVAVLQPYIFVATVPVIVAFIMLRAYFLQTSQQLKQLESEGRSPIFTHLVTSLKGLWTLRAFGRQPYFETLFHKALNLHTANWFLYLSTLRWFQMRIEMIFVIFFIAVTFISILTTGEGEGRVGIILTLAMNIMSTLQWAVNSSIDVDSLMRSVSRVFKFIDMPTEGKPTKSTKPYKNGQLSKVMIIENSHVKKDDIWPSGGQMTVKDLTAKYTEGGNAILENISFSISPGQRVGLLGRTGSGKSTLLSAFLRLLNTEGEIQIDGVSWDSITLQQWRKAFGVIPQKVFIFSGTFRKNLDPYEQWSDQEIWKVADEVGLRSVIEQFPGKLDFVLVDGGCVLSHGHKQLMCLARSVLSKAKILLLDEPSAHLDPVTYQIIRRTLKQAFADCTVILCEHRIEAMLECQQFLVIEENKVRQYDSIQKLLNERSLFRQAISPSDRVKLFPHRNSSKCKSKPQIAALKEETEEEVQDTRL

For `CC(c1cccc(CCC(=O)O)c1F)n1ccc(-c2cc(Oc3c(F)cc4[nH]ccc4c3S(C)(=O)=O)ccc2F)n1` (single isomer, unassigned) [Example 41B, 3-(2-fluoro-3-(1-(3-(2-fluoro-5-((6-fluoro-4-(methylsulfonyl)-1H-indol-5-yl)oxy)phenyl)-1H-pyrazol-1-yl)ethyl)phenyl)propanoic acid], the “TECC24 @ 10 μM over DMSO (AUC fold over DMSO)” value on CFTR is given as “A (“A” refers to AUC @10 uM >= 12)”. For the same molecule, in the assay with NBD1/3D, the “DSLS NBD1/3D Human Stability delta-T (° C.) @ 100 (μM)” value (shortened to “DSLS NBD1/3D Human Stability delta-T”) is on record as “A (A: T ≥ 10° C.)”.

For `CO[C@]1(C)C[C@@](c2cc(F)cc(CCC(=O)O)c2)(c2cnc(-c3cc(Oc4c(F)c(F)c5[nH]ccc5c4S(C)(=O)=O)ccc3F)[nH]2)C1` [Example 74, 3-(3-((1r,3r)-1-(2-(5-((6,7-difluoro-4-(methylsulfonyl)-1H-indol-5-yl)oxy)-2-fluorophenyl)-1H-imidazol-5-yl)-3-methoxy-3-methylcyclobutyl)-5-fluorophenyl)propanoic acid], on CFTR, the “TECC24 @ 10 μM over DMSO (AUC fold over DMSO)” value was “A (“A” refers to AUC @10 uM >= 12)”. Also, the “DSLS NBD1/3D Human Stability delta-T” value in the assay on NBD1/3D is listed as “A (A: T ≥ 10° C.)”.

As for `CC(O)(c1cccc(CCC(=O)O)c1)c1c[nH]c(-c2cc(C(=O)c3ccc4[nH]ccc4c3)ccc2F)n1` (centres unmarked) [Example 194, 3-(3-(1-(2-(2-fluoro-5-(1H-indole-5-carbonyl)phenyl)-1H-imidazol-4-yl)-1-hydroxyethyl)phenyl) propanoic acid], the “TECC24 @ 10 μM over DMSO (AUC fold over DMSO)” value on CFTR was “C (“C” refers to AUC @ 10 uM <= 4)”. The “DSLS NBD1/3D Human Stability delta-T” value in the assay with NBD1/3D is on record as “B (B: 5-10° C.)”.

Turning to `[2H]C([2H])([2H])C(C#N)(c1cccc(CCC(=O)O)c1)c1cnc(-c2cc(Oc3c(F)c(F)c4[nH]ccc4c3F)ccc2F)[nH]1` (single isomer, unassigned) [Example 64B, 3-(3-(1-Cyano-1-(2-(2-fluoro-5-((4,6,7-trifluoro-1H-indol-5-yl)oxy)phenyl)-1H-imidazol-5-yl)ethyl-2,2,2-d3)phenyl)propanoic acid], the “TECC24 @ 10 μM over DMSO (AUC fold over DMSO)” value on CFTR was “A (“A” refers to AUC @10 uM >= 12)”. In addition, the “DSLS NBD1/3D Human Stability delta-T” value with NBD1/3D is recorded as “B (B: 5-10° C.)”.

On to `CC(C)(C)C(c1cccc(CCC(=O)O)c1)c1cnc(-c2cc(Oc3c(F)cc4[nH]ccc4c3F)ccc2F)[nH]1` (centres unmarked) [Example 277, 3-(3-(1-(2-(5-((4,6-difluoro-1H-indol-5-yl)oxy)-2-fluorophenyl)-1H-imidazol-5-yl)-2,2-dimethylpropyl)phenyl)propanoic acid], for which the “TECC24 @ 10 μM over DMSO (AUC fold over DMSO)” value on CFTR is reported as “A (“A” refers to AUC @10 uM >= 12)”. Further, in the assay on NBD1/3D, the “DSLS NBD1/3D Human Stability delta-T” value is “B (B: 5-10° C.)”.

With `O=C(O)CCc1cccc(C2(c3cnc(-c4cc(Oc5c(F)cc6[nH]ccc6c5CC(F)(F)F)ccc4F)[nH]3)CCS(=O)(=O)CC2)c1` [Example 170, 3-(3-(4-(2-(2-fluoro-5-((6-fluoro-4-(2,2,2-trifluoroethyl)-1H-indol-5-yl)oxy)phenyl)-1H-imidazol-5-yl)-1,1-dioxidotetrahydro-2H-thiopyran-4-yl)phenyl)propanoic acid], the “TECC24 @ 10 μM over DMSO (AUC fold over DMSO)” value at CFTR is listed as “C (“C” refers to AUC @ 10 uM <= 4)”. Also, the “DSLS NBD1/3D Human Stability delta-T” value with NBD1/3D is “B (B: 5-10° C.)”.

As to `CC(O)(c1cccc(CCC(=O)O)c1)c1cnc(-c2cc(Oc3c(F)c(F)c4[nH]ccc4c3C3CC3)ccc2F)[nH]1` (centres unmarked) [Example 205, 3-(3-(1-(2-(5-((4-cyclopropyl-6,7-difluoro-1H-indol-5-yl)oxy)-2-fluorophenyl)-1H-imidazol-5-yl)-1-hydroxyethyl)phenyl) propanoic acid], at CFTR, the “TECC24 @ 10 μM over DMSO (AUC fold over DMSO)” value is recorded as “B (“B” refers to AUC @10 uM between 4-12)”. Besides, the “DSLS NBD1/3D Human Stability delta-T” value in the assay on NBD1/3D is recorded as “B (B: 5-10° C.)”.
